According to patent publication US11530186B2, “Inhibitors for the β-catenin / T-cell factor protein-protein interaction” (H. LEE MOFFITT CANCER CENTER AND RESEARCH INSTITUTE, INC., priority 2018, dated 2022):
Like-named read-outs stand apart in the source and are kept apart here.

Target: T1, β-catenin/Tcf protein-protein interaction (Homo sapiens, UniProt P35222)
T1 construct: Wild-type β-catenin (residues 138-781) were cloned into a pET-28b vector; 6×histidine (C); made in house; host or cells: E. coli BL21 DE3
T1 sequence (P35222 138-781): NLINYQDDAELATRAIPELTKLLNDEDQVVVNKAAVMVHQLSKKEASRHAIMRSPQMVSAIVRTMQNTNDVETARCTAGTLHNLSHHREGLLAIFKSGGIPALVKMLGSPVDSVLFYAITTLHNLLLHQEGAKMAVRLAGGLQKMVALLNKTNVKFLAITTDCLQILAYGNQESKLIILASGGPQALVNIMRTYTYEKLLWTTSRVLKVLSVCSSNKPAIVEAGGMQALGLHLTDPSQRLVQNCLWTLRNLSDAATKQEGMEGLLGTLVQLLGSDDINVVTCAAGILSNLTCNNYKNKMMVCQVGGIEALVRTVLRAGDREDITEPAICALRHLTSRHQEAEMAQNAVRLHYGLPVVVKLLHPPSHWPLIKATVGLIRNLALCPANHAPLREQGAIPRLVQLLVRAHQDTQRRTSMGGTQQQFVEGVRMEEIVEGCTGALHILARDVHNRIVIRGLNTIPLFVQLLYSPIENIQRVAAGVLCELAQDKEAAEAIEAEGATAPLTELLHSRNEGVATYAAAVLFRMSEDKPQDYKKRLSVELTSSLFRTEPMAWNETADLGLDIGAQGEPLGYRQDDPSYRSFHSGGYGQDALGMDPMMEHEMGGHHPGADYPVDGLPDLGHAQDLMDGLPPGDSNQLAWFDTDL
Test: FP competitive inhibition assay
Format: binding
Summary of the method: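 His-tagged human β-catenin (residues 138-781, E. coli-expressed) at 10 nM with 2.5 nM fluorescein-labeled Tcf4 (7-51) in PBS-type buffer with bovine γ-globulin and 0.01% Triton X-100. Compounds added, 1.5 h at 4 °C, 1% DMSO, before fluorescence polarization read. IC50 by nonlinear fit; Ki derived from IC50.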

Compound: O=C(O)c1ccc2c(c1)c(CCc1ccc(Cl)cc1)c(CCc1nc3ccccc3s1)n2CCc1nn[nH]n1 [Compound 27, 1-(2-(2H-tetrazol-5-yl)ethyl)-2-(2-(benzo[d]thiazol-2-yl)ethyl)-3-(4-chlorophenethyl)-1H-indole-5-carboxylic acid]
- Ki (Assay 1, mean ± SD (n = 3), read-out: Ki ± SD, Assay 1): 3.3 ± 0.64 µM
- Ki (Assay 2, mean ± SD (n = 3), read-out: Ki ± SD, Assay 2): 1.3 ± 0.38 µM
- Ki (Assay 3, mean ± SD (n = 3), read-out: Ki ± SD, Assay 3): 5.6 ± 1.8 µM
